Data as given in patent US20220135622A1, “ANTIBACTERIAL PEPTIDES AND METHODS OF USE” (priority 2019, published 2022).
≈ marks a conversion by molar mass, not a printed value. Like-named read-outs stand apart in the source and are kept apart here. Square brackets hold non-standard residues; d marks the D form. Peptide text beside a SMILES is read from it. Bip = N[C@@H](Cc1ccc(-c2ccccc2)cc1)C(=O)O; hPhe = N[C@@H](CCc1ccccc1)C(=O)O; Ahp(2) = CCCCC[C@H](N)C(=O)O; hSer = N[C@@H](CCO)C(=O)O; Dap = NC[C@H](N)C(=O)O

How the values were obtained:
K. pneumoniae = assay type: cell-based, Klebsiella pneumoniae
Experimental: (§1) Bacterial growth conditions. LB or Mueller Hinton II cation-adjusted broth (MHB II, BBL 212322) was prepared according to manufacturer's instructions and supplemented with arabinose at 0.02% for overnight growth or at indicated concentrations in the description of the figures. Bacterial cultures were grown at 37° C. When appropriate, media was supplemented with kanamycin (50 μg/mL), carbenicillin (50 μg/mL), chloramphenicol (12.5 or 25 μg/mL), hygromycin (200 μg/mL), and/or gentamicin (10 μg/mL).
(§2) Peptide sensitivity and MIC assays. Lyophilized peptides (Smartox Biotechnology, CPC Scientific. ABclonal) were solubilized to 10 mM in Tris buffer, pH 8, prior to making a 2-fold dilution series in MHBII cation adjusted broth with highest final assay concentration of 400-800 μM. Bacteria were grown to log phase and added to final OD600˜0.001. The final EDTA concentration was 0.5 mM for E. coli strains and 0.125 mM for USA300. The final volume of 10 μL/well in a 384 well black, clear bottom plate (Corning) was spun <1 min at <250×g and then incubated at 37° C. After 4 h, an equal volume (10 μL) of BacTiter-Glo™ (Promega) was added to each well and luminescence was read after 5 min on an EnVision plate reader (PerkinElmer). To measure the minimal inhibitory concentrations (MICs), bacteria from fresh overnight plates or log phase cultures were diluted with or without EDTA and peptides as described above to final OD600˜0.0002. Plates were incubated at 37° C. for 20 h before measuring OD600 with an EnVision plate reader.

A. baumannii = assay type: cell-based, Acinetobacter baumannii
Experimental: as §1, §2

E. coli BW25113 = assay type: cell-based, Escherichia coli
Summary of the method: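 For MIC, bacteria (final OD600 ~0.0002) were incubated with 2-fold peptide dilutions (top 400–800 μM) in cation-adjusted MHB II with or without EDTA, 20 h at 37 °C, read by OD600. EDTA was 0.5 mM for E. coli and 0.125 mM for USA300. The growth-inhibition assay used log-phase cells at OD600 ~0.001, 4 h at 37 °C, BacTiter-Glo luminescence.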

P. aeruginosa = assay type: cell-based, Pseudomonas aeruginosa
Experimental: as §1, §2

Molecule | MIC K. pneumoniae (K. pneumoniae) | MIC A. baumannii (A. baumannii) | MIC E. coli BW25113 (E. coli BW25113; BW25113) | MIC R. aeruginosa (P. aeruginosa) | MIC K. pneumoniae (K. pneumoniae; Table 8) | MIC A. baumannii (A. baumannii; Table 8) | MIC E. coli BW25113 (E. coli BW25113; Table 8) | MIC R. aeruginosa (P. aeruginosa; Table 8)
Ac-RPMTWRRFLAKYGL-NH2 [compound 200] | 200.0 µM | 50.0 µM | 50.0 µM | 50.0 µM | – | – | – | –
CCCCC[C@H](NC(=O)[C@@H](NC(=O)[C@H](CCSC)NC(=O)[C@@H]1CCCN1C(=O)[C@H](CCCNC(=N)N)NC(C)=O)[C@@H](C)O)C(=O)N[C@@H](CCCNC(=N)N)C(=O)N[C@@H](CCCNC(=N)N)C(=O)N[C@@H](Cc1c[nH]c2ccccc12)C(=O)N[C@@H](CC(C)C)C(=O)N[C@@H](CCC(=O)O)C(=O)N[C@@H](CCCCN)C(=O)N[C@@H](CCCNC(=N)N)C(=O)NCC(=O)N[C@@H](CC(C)C)C(N)=O [compound 212] (Ac-RPMT[Ahp(2)]RRWLEKRGL-NH2) | – | – | – | – | >400.0 µM | 200.0 µM (≈ 373 µg/mL) | 100.0 µM (≈ 187 µg/mL) | >400.0 µM
CSCC[C@H](NC(=O)[C@@H]1CCCN1C(=O)[C@H](Cc1ccc(O)cc1)NC(C)=O)C(=O)N[C@H](C(=O)N[C@@H](C)C(=O)N[C@@H](CCCNC(=N)N)C(=O)N[C@@H](CCCNC(=N)N)C(=O)N[C@@H](CCc1ccccc1)C(=O)N[C@@H](CC(C)C)C(=O)N[C@@H](CCC(=O)O)C(=O)N[C@@H](CCCCN)C(=O)N[C@@H](Cc1c[nH]c2ccccc12)C(=O)NCC(=O)N[C@@H](CC(C)C)C(=O)N[C@@H](CC(C)C)C(=O)N[C@@H](CCCNC(=N)N)C(N)=O)[C@@H](C)O [compound 84] (Ac-YPMTARR[hPhe]LEKWGLLR-NH2) | – | – | – | – | 50.0 µM (≈ 105 µg/mL) | 25.0 µM (≈ 52.3 µg/mL) | 50.0 µM (≈ 105 µg/mL) | 200.0 µM (≈ 419 µg/mL)
CSCC[C@H](NC(=O)[C@@H]1CCCN1C(=O)[C@H](Cc1ccc(O)cc1)NC(C)=O)C(=O)N[C@@H](CN)C(=O)N[C@@H](C)C(=O)N[C@@H](CCCNC(=N)N)C(=O)N[C@@H](CCCNC(=N)N)C(=O)N[C@@H](Cc1ccccc1)C(=O)N[C@@H](CC(C)C)C(=O)N[C@@H](C)C(=O)N[C@@H](CCCCN)C(=O)N[C@@H](Cc1c[nH]c2ccccc12)C(=O)NCC(=O)N[C@@H](CC(C)C)C(=O)N[C@@H](CC(C)C)C(=O)N[C@@H](CCCNC(=N)N)C(N)=O [compound 86] (Ac-YPM[Dap]ARRFLAKWGLLR-NH2) | – | – | – | – | 50.0 µM (≈ 100 µg/mL) | 25.0 µM (≈ 50.1 µg/mL) | 25.0 µM (≈ 50.1 µg/mL) | 50.0 µM (≈ 100 µg/mL)
CSCC[C@H](NC(=O)[C@@H]1CCCN1C(=O)[C@H](Cc1ccc(O)cc1)NC(C)=O)C(=O)N[C@H](C(=O)N[C@H](C)C(=O)N[C@@H](CCCNC(=N)N)C(=O)N[C@@H](CCCNC(=N)N)C(=O)N[C@@H](Cc1ccccc1)C(=O)N[C@@H](CC(C)C)C(=O)N[C@@H](CCC(=O)O)C(=O)N[C@@H](CCCCN)C(=O)N[C@@H](Cc1c[nH]c2ccccc12)C(=O)NCC(=O)N[C@@H](CC(C)C)C(=O)N[C@@H](CC(C)C)C(=O)N[C@@H](CCCNC(=N)N)C(N)=O)[C@@H](C)O [compound 92] (Ac-YPMT[dA]RRFLEKWGLLR-NH2) | – | – | – | – | >400.0 µM | 200.0 µM (≈ 416 µg/mL) | 200.0 µM (≈ 416 µg/mL) | >400.0 µM
CSCC[C@H](NC(=O)[C@H](CN)NC(=O)[C@H](CCSC)NC(=O)[C@@H]1CCCN1C(=O)[C@H](CCCNC(=N)N)NC(C)=O)C(=O)N[C@@H](CCCNC(=N)N)C(=O)N[C@@H](CCCNC(=N)N)C(=O)N[C@@H](Cc1ccc(-c2ccccc2)cc1)C(=O)N[C@@H](CC(C)C)C(=O)N[C@@H](CCC(=O)O)C(=O)N[C@@H](CCCCN)C(=O)N[C@@H](Cc1c[nH]c2ccccc12)C(=O)NCC(=O)N[C@@H](CC(C)C)C(N)=O [compound 209] (Ac-RPM[Dap]MRR[Bip]LEKWGL-NH2) | – | – | – | – | 12.5 µM (≈ 24 µg/mL) | 12.5 µM (≈ 24 µg/mL) | 6.25 µM (≈ 12 µg/mL) | 25.0 µM (≈ 48.1 µg/mL)
Ac-RPMTWRRFLAKRGL-NH2 [compound 203] | >400.0 µM | 400.0 µM | 200.0 µM | >400.0 µM | – | – | – | –
Ac-RPMTARRWLEKRGL-NH2 [compound 202] | – | – | – | – | >400.0 µM | >400.0 µM | 50.0 µM | >400.0 µM
CSCC[C@H](NC(=O)[C@@H]1CCCN1C(=O)[C@H](Cc1ccc(O)cc1)NC(C)=O)C(=O)N[C@@H](CN)C(=O)N[C@@H](Cc1ccccc1)C(=O)N[C@@H](CCCNC(=N)N)C(=O)N[C@@H](CCCNC(=N)N)C(=O)N[C@@H](Cc1ccc(-c2ccccc2)cc1)C(=O)N[C@@H](CC(C)C)C(=O)N[C@@H](CCC(=O)O)C(=O)N[C@@H](CCCCN)C(=O)N[C@@H](Cc1c[nH]c2ccccc12)C(=O)NCC(=O)N[C@@H](CC(C)C)C(=O)N[C@@H](CC(C)C)C(=O)N[C@@H](CCCNC(=N)N)C(N)=O [compound 90] (Ac-YPM[Dap]FRR[Bip]LEKWGLLR-NH2) | – | – | – | – | 50.0 µM (≈ 111 µg/mL) | 6.25 µM (≈ 13.8 µg/mL) | 200.0 µM (≈ 443 µg/mL) | 25.0 µM (≈ 55.4 µg/mL)
Ac-RPMTSRRWLAKRGL-NH2 [compound 214] | >400.0 µM | >400.0 µM | 100.0 µM | >400.0 µM | – | – | – | –
Ac-YPMTARRFLQKWGLLR-NH2 [compound 72] | – | – | – | – | 400 µM | 50 µM | 400 µM | 800 µM
CSCC[C@H](NC(=O)[C@@H]1CCCN1C(=O)[C@H](Cc1ccc(O)cc1)NC(C)=O)C(=O)N[C@@H](CN)C(=O)N[C@@H](Cc1ccccc1)C(=O)N[C@@H](CCCNC(=N)N)C(=O)N[C@@H](CCCNC(=N)N)C(=O)N[C@@H](Cc1ccccc1)C(=O)N[C@@H](CC(C)C)C(=O)N[C@@H](CCC(=O)O)C(=O)N[C@@H](CCCCN)C(=O)N[C@@H](Cc1c[nH]c2ccccc12)C(=O)NCC(=O)N[C@@H](CC(C)C)C(=O)N[C@@H](CC(C)C)C(=O)N[C@@H](CCCNC(=N)N)C(N)=O [compound 69] (Ac-YPM[Dap]FRRFLEKWGLLR-NH2) | – | – | – | – | 100 µM (≈ 214 µg/mL) | 12.5 µM (≈ 26.7 µg/mL) | 50 µM (≈ 107 µg/mL) | 200 µM (≈ 428 µg/mL)
Ac-YPMTARRFFEKWGLLR-NH2 [compound 94] | – | – | – | – | >400.0 µM | 200.0 µM | 200.0 µM | >400.0 µM
CSCC[C@H](NC(=O)[C@@H]1CCCN1C(=O)[C@H](CCCNC(=N)N)NC(C)=O)C(=O)N[C@H](C(=O)N[C@@H](C)C(=O)N[C@@H](CCCNC(=N)N)C(=O)N[C@@H](CCCNC(=N)N)C(=O)N[C@@H](Cc1c[nH]c2ccccc12)C(=O)N[C@@H](CC(C)C)C(=O)N[C@@H](CCO)C(=O)N[C@@H](CCCCN)C(=O)N[C@@H](CCCNC(=N)N)C(=O)NCC(=O)N[C@@H](CC(C)C)C(N)=O)[C@@H](C)O [compound 211] (Ac-RPMTARRWL[hSer]KRGL-NH2) | – | – | – | – | >400.0 µM | >400.0 µM | 50.0 µM (≈ 89.2 µg/mL) | >400.0 µM
CCCCC[C@H](NC(=O)[C@@H](NC(=O)[C@H](CCSC)NC(=O)[C@@H]1CCCN1C(=O)[C@H](Cc1ccc(O)cc1)NC(C)=O)[C@@H](C)O)C(=O)N[C@@H](CCCNC(=N)N)C(=O)N[C@@H](CCCNC(=N)N)C(=O)N[C@@H](Cc1ccccc1)C(=O)N[C@@H](CC(C)C)C(=O)N[C@@H](CCC(=O)O)C(=O)N[C@@H](CCCCN)C(=O)N[C@@H](Cc1c[nH]c2ccccc12)C(=O)NCC(=O)N[C@@H](CC(C)C)C(=O)N[C@@H](CC(C)C)C(=O)N[C@@H](CCCNC(=N)N)C(N)=O [compound 71] (Ac-YPMT[Ahp(2)]RRFLEKWGLLR-NH2) | – | – | – | – | 50 µM (≈ 107 µg/mL) | <6.25 µM | 100 µM (≈ 213 µg/mL) | 50 µM (≈ 107 µg/mL)
